Measurements as given in patent US20060024691A1, “Novel pathways in the etiology of cancer” (Buck Institute for Age Research, priority 2004, published 2006).
“Also recorded” adds a separate entry of the source. Read-outs that look alike come from different tables or passages of the source.

How the values were obtained:
ERα = conditions: estrogen-free culture, 30 min, K3 100 μM, estradiol 10 nM
Description: Human breast cancer cell lines MCF7 and T47D were obtained from the American Type Culture Collection (ATCC). MCF7 cells were maintained in Dulbecco's Modification of Eagle's Medium (Cellgro) supplemented with 10% fetal bovine serum (Cellgro), 1% penicillin/streptomycin (Cellgro) and 10 μg/ml insulin (Sigma). T47D cells were maintained in RPMI (Cellgro) supplemented with 10% fetal bovine serum, 1% penicillin/streptomycin and 10 μg/ml insulin. Treatment conditions for both cell lines involved plating ˜1×10^6 cells in normal media onto 10 cm dishes, attachment and growth for 24 hours followed by a change to estrogen-free culture conditions (phenol red-free DME H-16 supplemented with 10% charcoal stripped serum, 1% penicillin/streptomycin and 10 μg/ml insulin) for an additional 24 hours. Cells were then treated as indicated for 30 minutes before extract preparation. Indicated conditions involved 30 minute pretreatments.
For preparation of high-salt nuclear extracts (nucleoplasm), isolated nuclei were resuspended for 20 minutes in ice cold extraction buffer (0.4 M NaCl, 25 mM Tris pH 7.5, 1 mM DTT, 20% glycerol, 10 mM NaFl and min-complete protease inhibitors (Roche)) followed by a 4° C. centrifugation at 16,000×g for 15 minutes.

NF-κB p65 = assay: Nuclear translocation of NF-κB p65 in MCF-7 cultures; assay type: cell-based, human; conditions: 10 μM, 30 min
NFκB = NFκB DNA-binding by EMSA, nuclear extracts of menadione treated MCF-7 cells; assay type: cell-based, human; conditions: MCF-7, menadione 100 μM × 30 min
Description: (§1) PS-341 was kindly provided by Millennium Pharmaceuticals Inc. (Cambridge, Mass.). […] For assessment of combined treatment effects on cell viability, 2×10^4 cells (MCF-7, MCF-7/HER2, BT474) grown in 24-well plates were first treated with tamoxifen (dissolved in ethanol) and/or parthenolide (dissolved in DMSO); for the combination treatment pathenolide was added 4 h before addition of tamoxifen. Cell viability was measured 18 h after tamoxifen treatment using the sulforhodamine B (SRB) assay (Skehan, et al. 1990). Briefly, cells fixed with trichloroacetic acid were stained for 30 min with 0.4% SRB dissolved in 1% acetic acid. Unbound dye was removed by four washes with 1% acetic acid, and protein-bound dye was extracted with 10 mM unbuffered Tris base [tris(hydroxymethyl)aminomethane] for determination of optical density at 564 nm.
(§2) Fractionation of control and treated cells into cytoplasmic and nuclear extracts was performed as previously described (Dignam et al., 1983), with minor modification. Cells harvested on ice were washed twice with cold PBS, scraped and resuspended in 1.0 ml hypotonic buffer (20 mM HEPES, pH 7.0; 10 mM KCl; 1 mM MgCl2; 0.1% Triton X-100; 20% glycerol; 0.5 mM DTT) containing a cocktail of protease inhibitors (Mini CompleteTM protease inhibitors, Roche Diagnostics, Mannheim, Germany). The harvested cells were Dounce homogenized on ice, the mixture centrifuged at 3,000 rpm at 4° C. (5 min), and the cytoplasmic fraction separated from the nuclear pellet which was resuspended in elution buffer (20 mM HEPES, pH 7.0; 10 mM KCl; 1 mM MgCl2; 0.42 M NaCl; 0.1% Triton X-100; 20% glycerol; 0.5 mM DTT), supplemented with protease inhibitors. After 20 min at 4° C. the buffered mixture was centrifuged at 14,000 rpm at 4° C. (10 min) to obtain solubilized nuclear extracts which were then stored in aliquots at −80° C. after protein determination (Bradford; BioRad, Hercules, Calif.) and for subsequent NFkB DNA-binding assays.
NFκB DNA-binding activity was measured by two different techniques. Analogous to previous tumor extract scoring of Sp1 DNA-binding protein (Quong et al., 2002), total specific NFκB DNA-binding protein was determined by electrophoretic morbility shift assay (EMSA) as follows. A duplexed oligonucleotide probe (Promega, Madison, Wis.) with sense strand containing the decameric κB consensus binding sequence (underlined) 5′-[…]-3′(SEQ ID NO:4) was end-labeled with [γ-P32]ATP (PerkinElmer, Boston, Mass.) using T4 polynucleotide kinase (Promega, Madison, Wis.) and purified with G-50 Sephadex Bio-Spin columns (BioRad, Hercules, Calif.). […]

IκBα = assay: Immunoblot of cytoplasmic IκBα in MCF-7 cells; assay type: cell-based, human; conditions: MCF-7, menadione 100 μM × 30 min
Description: as §1
Fractionation of control and treated cells into cytoplasmic and nuclear extracts was performed as previously described (Dignam et al., 1983), with minor modification. Cells harvested on ice were washed twice with cold PBS, scraped and resuspended in 1.0 ml hypotonic buffer (20 mM HEPES, pH 7.0; 10 mM KCl; 1 mM MgCl2; 0.1% Triton X-100; 20% glycerol; 0.5 mM DTT) containing a cocktail of protease inhibitors (Mini CompleteTM protease inhibitors, Roche Diagnostics, Mannheim, Germany). […]

[1] = tested on: p50 and p65 NFκB subunits; assay: Immunoblot of nuclear p50 and p65 NFκB subunits in MCF-7 cells; assay type: cell-based, human; conditions: MCF-7, menadione 100 μM × 30 min
Description: as §1, §2
Antibodies against p50 NFκB, p65 NFκB, IκB, and β-actin proteins were commercially obtained (Santa Cruz Biotechnology, Santa Cruz, Calif.; and Abcam Inc., Cambridge, Mass.). […]; 4% SDS; 20% glycerol; and 10% 2-mercaptoethanol) and resolved by electrophoresis in 4-12% Bis-Tris SDS gradient gels in morpholinepropane sulfonic acid (MOPS) buffer. Separated proteins were transferred onto polyvinylidene difluoride membranes (Millipore Co., Billerica, Mass.), blocked with 5% non-fat milk in PBS containing 0.1% Tween-20, and membranes immunoblotted with the indicated antibodies in blocking solution. […]

`CC1=CC(=O)c2ccccc2C1=O` [menadione, 2-methyl-1,4-naphthoquinone] was tested, and the “nuclear translocation of ERα” value (ERα) was “nuclear translocation of 67 kDa (wild-type) ER”, the “nuclear translocation of ERα” value (ERα; listed as K3) was “majority of this cytoplasmic ERα has translocated to the nucleus” and the “increase in nuclear translocation of NF-κB p65 vs control treated cells” value (NF-κB p65) was greater than 3 fold. The “NFκB activation after menadione treatment (EMSA)” value (NFκB) was “increase in MCF-7 NFκB activation; also recorded: significantly increase MCF-7 NFκB activity”, the “cytoplasmic levels of IκBα after menadione treatment” value (IκBα) was “reduced” and the “nuclear NFκB subunits p50 and p65 after menadione treatment” value [1] was “increases in the nuclear NFκB subunits, p50 and p65”.
